How the values were obtained:
[1] = target: recombinant wild-type FoccCSP (Frankliniella occidentalis, UniProt G4Y3X1); assay: Fluorescence (1-NPN) binding and competitive binding assay, wild-type FoccCSP; conditions: wild-type FoccCSP, displacement of 1-NPN, both 2 μM
Method: FintCSP1 and FoccCSP DNA were released from pEASY-T1/FintCSP1 and pEASY-T1/FoccCSP, respectively, by restriction digestion with BamHI and XhoI and cloned into the pET-30a vector (Invitrogen). The resulting construct was transformed into Transetta (DE3) Escherichia coli competent cells (Transgen). The production of recombinant FintCSP1 and FoccCSP was induced by addition of isopropyl-β-D-1-thiogalactopyranoside (IPTG, 0.2 mM) at 15°C and purified by Ni ion affinity chromatography (Sangon Biotech, Shanghai, China). The target protein was verified by 15% SDS-PAGE, and its concentration was determined with a BCA protein assay kit (Thermo Scientific, Rockford, IL, USA). The recombinant purified protein was stored at −20°C until use.
(§1) The binding affinity of FintCSP1 and FoccCSP to the fluorescent probe N-phenyl-1-naphthylamine (1-NPN) was tested using a Spectramax M2 fluorescence spectrometer (Molecular Devices, USA) as reported previously. Volatile compounds and 1-NPN were first dissolved to a concentration of 1 mM in HPLC-grade methanol and dissolved to their indicated final concentration (2–20 μM) to titrate 2 μM protein solutions resuspended in 50 mM Tris-HCl (pH 7.4). The 1-NPN/FintCSP1 or 1-NPN/FoccCSP mixture was excited at 280 nm, and the emission spectra were recorded at 415 nm. The binding constants (Kd) of FintCSP1 or FoccCSP to 1-NPN were calculated by Scatchard analysis using Prism 5 software (GraphPad, La Jolla, CA, USA). Assuming a protein activity of 100% and that the volatile compound binds to the protein in a 1:1 ratio at saturation, the dissociation constants (Ki) of FintCSP1 or FoccCSP for each ligand were calculated according to the IC50 (the concentration when the ligand replaces 50% of the probe) value of the volatile compounds. The Ki values were calculated according to the following equation: Ki = [IC50]/(1 + [1-NPN]/K1-NPN), where [1-NPN] is the free concentration of 1-NPN, and K1-NPN is the Kd of the 1-NPN/FintCSP1 or 1-NPN/FoccCSP.

FoccCSP-Val132Ala = FoccCSP-Val132Ala (Frankliniella occidentalis, UniProt G4Y3X1, V132A); assay: Fluorescence (1-NPN) binding and competitive binding assay, FoccCSP mutant (negative control residue)
Method: as §1
To verify the key amino acids of FintCSP1 and FoccCSP that bind to cis-3-hexenal, six amino acid residues of FintCSP1 were mutated (Lys26Ala, Phe27Ala, Thr28Ala, Glu67Ala, Ser84Ala, and the negative control residue Val132Ala) and nine amino acid residues of FoccCSP were mutated (Lys26Ala, Phe27Ala, Thr28Ala, Thr29Ala, Tyr31Ala, Asp64Ala, Glu67Ala, Gln87Ala, and the negative control residue Val132Ala) with the Fast Mutagenesis System Kit (Transgen Biotech, Beijing, China) using the pET-30a/FintCSP1 and pET-30a/FoccCSP plasmid DNA as template, respectively. Specific primers were designed using Primer Premier 5.0 according to the instructions of the Fast Mutagenesis System Kit (S1 Table). After validation by sequencing, each recombinant variant protein was produced and purified as described above, and their binding affinity to cis-3-hexenal was measured as described above.

F. occidentalis antennae = assay: Electroantennogram (EAG) assay; parameters: species or system Frankliniella occidentalis; conditions: dsFoccCSP-injected compared to dsEGFP-injected F. occidentalis
Method: The FintCSP1, FintCSP2, FintOBP, FintOR, FoccCSP, and enhanced green fluorescent protein (EGFP) coding sequences were obtained from GenBank under accession numbers MT199111, MT211602, OK067245, MT211603, AEP27186.1, and U55761.1, respectively. Primers were designed using Primer Premier 5.0, and the T7 promoter sequence (5′-[…]-3′) was added to the 5′ end of each primer (S1 Table). DNA fragments containing T7 promoter sequences were amplified by PCR using pEASY-T1/target gene or pUC-EGFP (preserved in the laboratory) plasmid DNA as template. Then, a double-stranded RNA (dsRNA) was produced from each target gene using the HiScribe T7 Quick High Yield RNA Synthesis Kit (New England Biolabs) according to the manufacturer’s instructions. […]
At 24 h after dsRNA injection, the electrophysiological responses of F. intonsa antennae to six volatile components (i.e., m-cymene, cis-3-hexenal, (+)-2-carene, trans-2-hexenal, α-phellandrene, and α-humulene) or F. occidentalis antennae to cis-3-hexenal were recorded using EAG. […] The EAG values to volatile compounds were calculated using the following equation: absolute value of EAG reaction = reaction value of the tested sample—average value of two control measurements.

Sequence of FoccCSP-Val132Ala (G4Y3X1 entry or part of it V132A): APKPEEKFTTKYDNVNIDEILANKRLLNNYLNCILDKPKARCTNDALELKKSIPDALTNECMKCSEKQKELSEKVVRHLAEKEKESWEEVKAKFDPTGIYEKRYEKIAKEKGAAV
Sequence of recombinant wild-type FoccCSP (G4Y3X1 entry or part of it): as the sequence (G4Y3X1 entry or part of it V132A) above, with A113V counted along it

## CC/C=C\CC=O [cis-3-hexenal]
[1]; 50 mM Tris-HCl pH 7.4
  IC50: 28.8 ± 0.45 µM
[1]; pH 7.4
  Ki: 23.4 ± 0.36 µM
FoccCSP-Val132Ala
  IC50: 28.7 ± 0.12 µM
  Ki: 23.69 ± 0.1 µM
FoccCSP-Val132Ala; FoccCSP-Val132Ala compared to the wild-type protein
  binding to cis-3-hexenal (in words): only a minor change in binding
F. occidentalis antennae
  EAG response of FoccCSP-silenced antennae (in words): significantly lower response
